Measurements taken from a melting point compilation (Tetko et al.; mined from patent text by program, amines drawn as free bases though some values may be those of a salt).

Structure (SMILES) | melting point
O=P(O)(O)Cc1cc(Cl)c(Oc2ccc(O)c(Cc3ccc(F)cc3)c2)c(Cl)c1 | 207 to 210 °C
CC(N1C(=O)C(=O)N(c2ccc(C#N)cc2)C1=S)C(C)(C)C (configuration not stated) | 198 °C
Cc1ccc(C(=O)NCc2ccc3c(c2)CN(C2CCC(=O)NC2=O)C3=O)cc1Cl (configuration not stated) | 229 to 231 °C
CC(C)C(=CCS(=O)(=O)c1ccccc1)C(C)C | 50 °C
COc1cc2c(cc1C#N)[C@@H](O)[C@H](Br)C(C)(C)O2 (relative stereo) | 144 to 146 °C
CC(=O)Oc1ccc(C(=O)NCCO[N+](=O)[O-])cc1 | 95 to 97 °C
CC1ON(C)C(=O)C(C(=O)c2ccc(Cl)cc2[N+](=O)[O-])C1=O (configuration not stated) | 128 °C
COC(=O)c1cccc(NC(=O)NS(=O)(=O)c2ccc(C)cc2)c1 | 178 to 180 °C
Oc1cc(CBr)c2oc(-c3ccc(O)c(F)c3)cc2c1 | 269 to 271 °C
N#Cc1c(N2CCCCC2)cc(-c2ccc3ccccc3c2)c2c1Cc1ccccc1-2 | 142 to 144 °C
CS(=O)(=O)Nc1cc([N+](=O)[O-])ccc1OC1CCCCC1 | 105 to 106 °C
COc1ccc(-c2[nH]cnc2-c2cc(OC)c(Br)c(OC)c2)cc1O | 185 to 187 °C
NS(=O)(=O)c1cc(C(=O)CBr)ccc1Cl | 169 °C
Cc1ccc(-n2nccn2)c(C(=O)O)c1 | 168 °C
CCC(=O)N(Cc1cccc(-c2ccccc2)c1)c1cccc(-c2nnn[nH]2)c1 | 91 °C
O=c1c2ccccc2nc(-c2ccccc2Cl)n1O | 211 °C
CCOC1=C(C(=O)O)CN(C2CCCCC2)C1=O | 154 to 155 °C
O=C1c2ccccc2C(=O)N1Cc1noc(CCl)n1 | 96.5 to 98 °C
N#Cc1ccc(N2C(=O)N(CCCC(=O)O)C3(CCOCC3)C2=O)cc1C(F)(F)F | 151 to 152 °C
O=C(O)CC1COc2ccccc2O1 (configuration not stated) | 95 °C
CCOC(=O)C1CCN(c2ccc([N+](=O)[O-])c(C=C3NC(=O)NC3=O)c2)CC1 | 221 to 223 °C
CCOC(=O)c1c(C)nn2ccc3c(c12)C(CC#N)CC3 (configuration not stated) | 136 to 140 °C
Clc1ccc(N2CCN(Cc3cn4cc(Br)ccc4n3)CC2)c(Cl)c1 | 137 to 138 °C
OCC1(CO)c2ccccc2C=Cc2ccccc21 | 162 to 163 °C
CCOC(=O)COc1cc(OC)c2c(c1S(N)(=O)=O)OC1(CCCCC1)CC2=O | 188 to 190 °C
N#CCC1(c2onc(-c3ccc(O)cc3)c2-c2ccccc2)CC1 | 189 to 190 °C

Structure (SMILES) | melting point
COC(=O)CS(=O)CCCCN(c1cnc(-c2ccccc2)c(-c2ccccc2)n1)C(C)C (configuration not stated) | 128 to 130 °C
O=C(N[C@@H](Cc1ccccc1)C(=O)O)c1cccc(NC(=O)C(CS)Cc2ccccc2)c1 (some centres not stated) | 83 to 85 °C
CC(CNC(=O)Cc1ccccc1)NCC(O)c1ccccc1 (configuration not stated) | 96 to 98 °C
COc1cc(C)nc(-c2cccc(-c3ccccc3C)n2)n1 | 103 °C
CCCn1c(=O)c2nc(C(C)Cc3ccc(OCC(=O)O)cc3)[nH]c2n(CCC)c1=O (configuration not stated) | 168 to 170 °C
CCOC(=O)c1c(C(=O)C(=O)OC)c2cc(Cl)ccc2n1C | 119 to 120 °C
Nc1c2c(nc3cc(F)ccc13)CCSC2 | 234 to 237 °C
O=[N+]([O-])c1ccc2sc(NCCO)nc2c1 | 183 °C
COC(=O)c1csnc1-c1cc(C(F)(F)F)cc(C(F)(F)F)c1 | 45 to 46.5 °C
Cc1nc(-n2cnn(Cc3ccc(OC(F)F)cc3)c2=O)sc1C(=O)NCc1cccnc1 | 151 to 152 °C
CCOc1nc(C(F)(F)F)cc(=O)n1-c1cc(OCCON=C(C)C)c(Br)cc1F | 131 to 132 °C
CC(C)Sc1c(C2=NC(C)(C)CO2)oc(Br)c1Br | 71 to 72 °C
Nc1cnc2c(NC(=O)c3c(Cl)cccc3Cl)cccc2c1-n1ccnc1 | > 250 °C
CCN(c1nc(C)cc(C)n1)c1ccc(CC=NOC)cc1SC | 106 to 108 °C
O=C1CC(Nc2ccccc2)C(=O)N1c1ccccc1 (configuration not stated) | 211 to 214 °C
CC(Cn1ncnn1)n1nnc2cc3c(=O)n(C(C)Cn4ncnn4)nnc3cc2c1=O (configuration not stated) | 64 to 66 °C
CSCOc1ccc2c(c1)CCC1C2CCC2(C)C(=O)CCC12 (configuration not stated) | 65 °C
N#CC(=Cc1ccc(CBr)cc1)c1ccccc1 | 61 °C
COc1ccc(NC(=O)C2CC2)cn1 | 130 to 131 °C
COc1ccc(Cl)n2nc(S(=O)(=O)Nc3c(F)cccc3F)nc12 | 190 to 191 °C
Cc1cc([N+](=O)[O-])ccc1N=C1C2CC3CC(C2)CC(C3)N1C1CCCC1 | 149 to 152 °C
CC(C)(C)OC(=O)C1CCN(C(=O)OCc2ccccc2)N1 (configuration not stated) | 55 to 57 °C
O=C(CC12CC3CC(CC(C3)C1)C2)N1CCc2sccc2C1 | 121 to 125 °C
CCOC(=O)c1cnc2c(C)csc2c1Cl | 113 to 115 °C
O=S(=O)(N1CCCC1)N1CCN(c2ccnc(CO)n2)CC1 | 128 to 131 °C
CCCCc1nc2c(C)cnc(C(=O)OC)c2n1Cc1ccc(-c2ccccc2-c2nnn[nH]2)cc1 | 149 to 151 °C

Structure (SMILES) | melting point
CCC(CC)N(Cc1ccc(C(=O)O)cn1)S(=O)(=O)c1ccc(F)cc1 | 145 to 147 °C
CCCCC(=O)Nc1cccc2c1C(=O)N(C1(C)CCC(=O)NC1=O)C2=O (configuration not stated) | 190 to 192 °C
COC(=O)Cc1ccc2nc(Nc3ccccc3)oc2c1 | 155 to 157 °C
COP(=S)(NNC(C)(C)C)OC | 51 to 54 °C
CCOC(=O)c1cn2c(C)nnc2cc1Nc1ccc(I)cc1F | 201 to 204 °C
O=C(NCCO)c1cccc(-c2cccc3cn(Cc4cccc(C(F)(F)F)c4)nc23)c1 | 136 to 137 °C
COC(=O)COc1ccc(OC/C=C(/c2ccc(Cl)cc2)c2ccc(I)cc2)cc1C | 89 to 92 °C
CN(C)C(=O)n1nc(N)c2ccc(Cl)cc21 | 170 to 172 °C
CC(C)c1cc(C=Cc2ccccc2O)on1 | 129 to 133 °C
COc1ccc(N2C(=O)NC3(CCOCC3)C2=O)cc1 | 253 to 254 °C
COc1ccc(OC)c(CCc2ccc3ncnc(N)c3c2)c1 | 160 to 165 °C
CC=C1c2ccccc2CC(=NO)c2ccccc21 | 128 to 131 °C
CC1Nc2ccc(-c3csc(C#N)c3)cc2C(C)(C)O1 (configuration not stated) | 175 to 176 °C
CN1CCN(c2ccc(C(=O)C(C)(C)N3CCN(C)CC3)cc2)CC1 | 133 to 136 °C
CCNCCCCCC(C)O (configuration not stated) | 37 to 38 °C
COc1ccc(/C=C/CO)cc1OCc1nc(-c2ccccc2)oc1C | 137 to 138 °C
Cc1cccc(-c2nc(N)sc2-c2ccc(F)c(-c3cnn(C)c3)c2)n1 | 153 to 155 °C
CCOC(=O)c1cc(N=C=S)c(Cl)cc1Cl | 45 to 46 °C
O=C1c2ccc([N+](=O)[O-])cc2COc2cc(Nc3ccc(F)cc3F)ccc21 | 210 to 214 °C
O=C1CCc2cc(N/C(=C3\C(=O)Nc4ccc([N+](=O)[O-])cc43)c3ccccc3)ccc2N1 | > 300 °C
CCN(CC)CCNC(=O)c1ccc2cc(I)ccc2n1 | 75 to 77 °C
CC(O)C(CCCc1ccccc1)n1ncc2c(=O)[nH]c(Cc3ccc(Br)cc3)nc21 (configuration not stated) | 117 °C
NC1(c2ccccc2Cl)C(=O)Nc2ccc(Cl)cc21 (configuration not stated) | 174 to 176 °C
O=C(Nc1ccc(S(=O)(=O)C(F)(F)F)cc1Cl)c1cc(S(=O)c2ccc(F)cc2)c2ccccc2c1O (configuration not stated) | 198 to 200 °C
COC(=O)[C@]1(C)Oc2ccccc2NC1=O | 153 to 157 °C
NC(=O)CC(CC(N)=O)c1cccc(OCc2ccccc2)c1 | 205 to 207 °C

Structure (SMILES) | melting point
C[C@H](CO)[C@H]1CC[C@H]2[C@@H]3C=CC4=CC(=O)C=C[C@]4(C)[C@H]3CC[C@]12C | 156 to 157 °C
CCCCCCCCCCCC#Cc1cnccc1C=C(C(=O)O)C(=O)O | 175 to 177 °C
O=c1[nH]c2cc(-c3ccncc3)ccc2c(=O)o1 | 265 to 267 °C
O=C1Nc2ccccc2C(c2ccccc2)N1C1CCN(Cc2cccc(OC(F)(F)F)c2)CC1 (single isomer, unassigned; (+)) | 195 to 198 °C
N#Cc1cc(NC(=O)c2cc3ccccc3s2)ccc1N1CCC(CCO)CC1 | 218 °C
CC(C)(C)OC(=O)c1ncn2c1[C@@H]1CCN1C(=O)c1ccccc1-2 | 185 to 187 °C
COCc1c(C=O)ncc2c1c1c(OCc3ccccc3)cccc1n2CC(=O)N(C)CCc1ccccc1 | 192 to 197 °C
O=C(O)c1ccc(NC(=O)c2ccc3c(c2)SCCCC3)cc1 | 261 to 262 °C
CC(C)=NN(C)C1=NOCc2ccc(Cl)cc21 | 105 to 106 °C
C[C@H]1C=CC2=C[C@@H](O)C[C@H](OC(=O)C(C)(C)Oc3ccccc3)[C@@H]2[C@H]1CC[C@@H]1C[C@@H](O)CC(=O)O1 | 155 to 158 °C
COc1ccccc1Oc1cccc2c1OC(=O)C2 | 171 to 172 °C
CP1(=O)c2ccccc2CN1c1ccc(Br)cc1 (configuration not stated) | 135 to 136 °C
CC(C)NCC(O)COc1ccc(NC(=O)C(C)C)cc1C#N (configuration not stated) | 126 to 127 °C
COC(=O)c1[nH]c(=S)n(Nc2cccc(Cl)c2)c1C | 160 to 162 °C
CSc1ccc(C=C2C=CC=C2)cc1 | 105 to 106 °C
CC(Cl)c1ccc(C(=O)c2cccs2)cc1 (configuration not stated) | 60 °C
O=C(N[C@H]1CCN(CCCOc2ccc(F)cc2)C[C@H]1O)c1ccccc1 (relative stereo) | 130 °C
CCc1nc(CC)c(CO)c(-c2ccccc2)c1CC | 100 °C
COC(=O)C1(c2cc(C#N)ccc2O)CCCC1 | 113 to 118 °C
O=C(c1cccs1)c1cnn2c(-c3cccc(-c4nnn(CC5CCC5)n4)c3)ccnc12 | 170 °C
CNC(CC(=O)O)c1ccccc1 (configuration not stated) | 167 to 168 °C
CCCCN1CCc2c(C)nc3ncnn3c21 | 72 to 75 °C
COC(=O)C(C)(C)OCC#Cc1cc(C(F)(F)F)ccc1NS(=O)(=O)c1ccc2nc(NC(C)=O)sc2c1 | 104 to 106 °C
Cc1ccc(N2C(=O)C(O)=C(C(=O)c3ccc(C(C)C)cc3)C2c2ccc(N3CCN(C)CC3)cc2)nn1 (configuration not stated) | 198 to 203 °C
